Measurements reported in patent publication US20010056085A1, “Methods of using vesicant drug formulations” (priority 1996, published 2001).
Read-outs that look alike come from different tables or passages of the source.

Assay: Half-life of ADR destruction by UVA light in the presence of test compounds (decrease in absorbance at 480 nm)
Type: physicochemical
[1] = UVA light, 100 μM test compound with 0.5 μM riboflavin
[2] = UVA light, 100 μM test compound alone

| Structure (SMILES) | Half-Life of ADR Destruction, 100 μM Test Compound and 0.5 μM Riboflavin [1] | Half-Life of ADR Destruction, 100 μM Test Compound [2] | also measured |
| --- | --- | --- | --- |
| Cc1cc(C)cc(N)c1 [3,5-Dimethyl Aniline] | 100.4 ± 70.9 min | – | – |
| O=C(O)CCc1ccc(O)cc1 [3-(4-Hydroxyphenyl) Propionic Acid] | 75.3 min | – | – |
| Cc1cc2ccccc2[nH]1 [2-Methyl Indole] | 7.00 min | – | – |
| OCCCc1ccccc1 [3-Phenyl-1-Propanol] | 43.0 min | 50.2 min | – |
| Nc1ccc(C(=O)c2ccccc2)cc1 [4-Aminobenzophenone] | 21.5 min | – | – |
| Cc1c[nH]c(C)c1 [2,4-Dimethyl Pyrrole] | 20.1 min | – | – |
| Nc1ccc([N+](=O)[O-])cc1[N+](=O)[O-] [2,4-Dinitro Aniline] | – | – | Half-Life of ADR Destruction, 100 μM Test Compound: 75.3 min; Half-Life of ADR Destruction, 100 μM Test Compound and 0.5 μM Riboflavin: 50.2 min |
| O=C(O)Cc1c[nH]c2ccc(O)cc12 [5-Hydroxyindole-3-acetic acid] | 150.5 min | – | – |
| O=C(c1ccccc1)c1ccc[nH]1 [2-Benzoyl pyrrole] | 33.5 min | 50.2 min | – |
| CC(=O)c1ccccc1 [Acetophenone] | 43.0 min | 43.0 min | – |
| O=C(O)c1ccc[nH]1 [Pyrrole-2-carboxylic acid] | 23.2 min | – | – |
| O=S(=O)(O)c1cc(O)ccc1O [2,5-Dihydroxy Benzenesulfonic acid] | 25.1 min | – | – |
| c1ccc2c(c1)CCCN2 [1,2,3,4-Tetrahydroquinoline] | 100.3 min | – | – |
| c1ccc2sccc2c1 [Thianaphthalene] | 50.2 min | – | – |
| OCCOc1ccc2ccccc2c1 [2-(2-naphthyloxy) Ethanol] | 2.95 min | 30.1 min | – |
| COc1ccc(C=O)c2ccccc12 [4-Methoxy-1-naphthaldehyde] | 1.19 min | 1.15 min | – |
| CC(C(=O)O)c1ccccc1 (stereo not drawn) [α-Methyl-Phenylacetic Acid] | 50.2 min | – | – |
| NCc1ccc(O)c(O)c1 [3,4-Dihydroxy Benzylamine] | 150.3 min | – | – |
| O=C1c2c(O)cccc2Cc2cccc(O)c21 [1,8-Dihydroxyanthrone] | 30.1 min | 27.4 min | – |
| O=C(O)c1cc2ccccc2o1 [2-Benzofurancarboxylic acid] | 50.2 min | – | – |

| Structure (SMILES) | Half-Life of ADR Destruction, 100 μM Test Compound and 0.5 μM Riboflavin [1] | Half-Life of ADR Destruction, 100 μM Test Compound [2] | also measured |
| --- | --- | --- | --- |
| Cc1ccc2[nH]c(C)cc2c1 [2,5-Dimethyl Indole] | 5.79 min | 17.7 min | – |
| O=C(O)c1cccc2c1-c1ccccc1C2=O [9-Fluorenone-4-carboxylic acid] | 43.0 min | 50.2 min | – |
| O=C(O)c1ccc2c(c1)C(=O)c1ccccc1-2 [9-Fluorenone-2-carboxylic acid] | 43.0 min | – | – |
| Nc1cccc(Cc2ccccc2)c1 [3-Benzylaniline] | 6.54 min | – | – |
| OCCCCc1ccccc1 [4-Phenyl-1-Butanol] | 43.0 min | 43.0 min | – |
| COc1cc(OC)c2ccc(=O)oc2c1 [5,7-Dimethoxycoumarin] | 23.2 min | 27.4 min | – |
| O=C(c1ccc(C(=O)O)c(C(=O)O)c1)c1ccc(C(=O)O)c(C(=O)O)c1 [3,3′,4,4′-Benzophenone-tetracarboxylic acid] | – | 43.0 min | – |
| CC(C(=O)O)c1ccc(-c2ccccc2)cc1 (stereo not drawn) [4-Phenyl α-Methyl-Phenylacetic Acid] | 27.4 min | – | – |
| N[C@@H](Cc1ccccc1O)C(=O)O [2-Hydroxy Phenylalanine] | 15.1 min | – | – |
| Cc1c(N)cccc1CO [3-Amino-2-Methyl Benzyl Alcohol] | 33.5 min | – | – |
| CC(=O)c1ccc(O)cc1 [4′-Hydroxyacetophenone] | 50.2 min | 50.2 min | – |
| O=C(O)c1ccc2[nH]ccc2c1 [Indole-5-carboxylic acid] | 12.0 min | – | – |
| COc1cccc(C(=O)O)c1 [3-Methoxy Benzoic Acid] | – | 43.0 min | – |
| CN(C)c1ccc(CN)cc1 [4-(Dimethylamino) Benzylamine] | 43.0 min | – | – |
| O=C1c2c(O)cccc2C([C@@H]2O[C@H](CO)[C@@H](O)[C@H](O)[C@H]2O)c2cc(CO)cc(O)c21 (stereo partly drawn) [Aloin] | 75.3 min | 75.3 min | – |
| CC(=O)Oc1c[nH]c2ccccc12 [3-Acetoxyindole] | 5.90 min | 25.1 min | – |
| Oc1ccc2ccccc2c1 [2-Hydroxynaphthalene] | 23.2 min | 30.1 min | – |
| O=C(O)c1ccc(O)cc1 [4-Hydroxy Benzoic Acid] | 100.3 min | – | – |
| Oc1ccc2c(c1)[nH]c1ccccc12 [2-Hydroxy Carbazole] | – | – | Half-Life of ADR Destruction, 100 μM Test Compound and 0.5 μM Riboflavin (UVA light, with 0.5 μM riboflavin, +4% DMSO): 75.3 ± 35.4 min |
| Cc1ccc(C)[nH]1 [2,5-Dimethyl Pyrrole] | 9.12 min | – | – |

| Structure (SMILES) | Half-Life of ADR Destruction, 100 μM Test Compound and 0.5 μM Riboflavin [1] | Half-Life of ADR Destruction, 100 μM Test Compound [2] | also measured |
| --- | --- | --- | --- |
| O=C(O)c1cccc(C(=O)c2ccccc2)c1 [3-Benzophenone-carboxylic acid] | – | – | Half-Life of ADR Destruction, 100 μM Test Compound: 20.1 min; Half-Life of ADR Destruction, 100 μM Test Compound and 0.5 μM Riboflavin: 15.8 min |
| Cc1cccc(N)c1 [3-Methyl Aniline] | – | – | Half-Life of ADR Destruction, 100 μM Test Compound and 0.5 μM Riboflavin: 33.5 min |
| COc1ccc2ccc(=O)oc2c1 [7-Methoxycoumarin] | 18.8 min | 20.1 min | – |
| Cc1cccc2cc[nH]c12 [7-Methyl Indole] | 16.7 min | – | – |
| Nc1ccc(CC(=O)O)cc1 [4-Amino Phenylacetic acid] | 4.63 min | 50.2 min | – |
| Cn1ccc2ccccc21 [N-ω-methyl-indole] | 20.1 min | – | – |
| Cc1cc2nc3[nH]c(=O)[nH]c(=O)c3nc2cc1C [Lumichrome] | – | – | Half-Life of ADR Destruction, 100 μM Test Compound: 6.02 min; Half-Life of ADR Destruction, 100 μM Test Compound and 0.5 μM Riboflavin: 3.86 min |
| N[C@@H](Cc1cccc(O)c1)C(=O)O [3-Hydroxy Phenylalanine] | 34.2 ± 5.9 min | – | – |
| CCc1cccc(N)c1 [3-Ethyl Aniline] | 20.1 min | – | – |
| O=c1ccoc2ccccc12 [Compound 4-Chromone, 4-Chromone] | – | 43.0 min | – |
| Nc1c(-c2ccccc2)cc(-c2ccccc2)cc1-c1ccccc1 [2,4,6-Triphenylaniline] | 33.5 min | – | – |
| CCCCc1ccc(N)cc1 [4-Butyl Anilne] | – | – | Half-Life of ADR Destruction, 100 μM Test Compound and 0.5 μM Riboflavin: 7.17 min |
| c1ccc2c3c([nH]c2c1)CCCCCC3 [2,3-Cyclooctenoindole] | 15.8 min | – | – |
| Nc1cccc2c1Cc1ccccc1C2 [1-Amino-9,10-dihydroanthracene] | 75.3 min | 75.3 min | – |
| O=C(O)C=Cc1ccc(O)cc1 [4-Hydroxy Cinnamic Acid] | – | 50.2 min | – |
| O=c1c2ccccc2oc2ccccc12 [Xanthrone] | 6.84 min | 5.47 min | – |
| CC(C(=O)O)c1ccc(N2Cc3ccccc3C2=O)cc1 (stereo not drawn) [Indoprofen, 4-(1-Isoindolinone)-α-Methyl Phenylacetic Acid, reference compound] | 25.1 min | 75.3 min | – |
| COC(=O)[C@@H](N)Cc1ccc(O)cc1 [Tyrosine Methyl Ester] | 43.0 min | – | – |
| CCCCCc1ccc(N)cc1 [4-Pentyl Aniline] | 4.12 min | – | – |
